Entries after “also recorded” stand apart in the source; their conditions may differ.
How the values were obtained:
aMinoC1 sdAb = test: SPR of peptide-Fc or small-molecule analytes against aMinoC1; type: binding, alpaca; details: molecules closely related to minocycline
Experimental: (§1) Binding assays were carried out using 1x HBS-EP+ running buffer. Various concentrations (2.5 μM with 2-fold serial dilutions) of the analyte were injected for 150 s at 30 μL/min with 150 s dissociation time. Glycine-HCl (pH 2.0) was used as the regeneration buffer for the sensor chips. For the rechallenge experiment, aMinoC1 was immobilized on a CM5 sensor chip and CX7C peptide-Fc conjugates were loaded at 100 nM and injected as the analyte for 150 s at 30 μL/min. Following the injection of peptide-Fc, a small molecule at 1 μM was injected for 300 s at 30 μL/min, using dual injection function on a Biacore 8k instrument, to dissociate the peptide-Fc from the aMinoC1-peptide complex. The system was then washed using HBS-P^+ buffer for 300 s at 30 μL/min prior to rechallenge with peptide-Fc. The cycle was repeated three times following a final dissociation step of 300 s. For the alanine scanning experiments, the anti-minocycline antibody (sdAb-muIgG2a-Fc fusion) was captured on a Protein A series S sensor chip, to a density of 3000 RU. […] Glycine-HCl (pH 1.5) was used as the regeneration buffer. In each case, flow cell 1 was used for reference subtraction, and a “0 concentration” sensogram of buffer alone was used as a double reference subtraction to factor for drift. Data analysis was carried out using Biacore T200 Evaluation Software, version 3.0, and Biacore Insight evaluation software. […]

aMinoC22 sdAb = test: SPR of related small molecules against aMinoC22; type: binding, alpaca; details: molecules closely related to minocycline
Experimental: as §1

aMinoC1-peptide complex = test: SPR rechallenge: small-molecule-driven dissociation of peptide-Fc from immobilized aMinoC1; type: binding; details: peptide-Fc 100 nM, small molecule 1 μM
Experimental: Binding assays were carried out using 1x HBS-EP+ running buffer. Various concentrations (2.5 μM with 2-fold serial dilutions) of the analyte were injected for 150 s at 30 μL/min with 150 s dissociation time. Glycine-HCl (pH 2.0) was used as the regeneration buffer for the sensor chips. For the rechallenge experiment, aMinoC1 was immobilized on a CM5 sensor chip and CX7C peptide-Fc conjugates were loaded at 100 nM and injected as the analyte for 150 s at 30 μL/min. Following the injection of peptide-Fc, a small molecule at 1 μM was injected for 300 s at 30 μL/min, using dual injection function on a Biacore 8k instrument, to dissociate the peptide-Fc from the aMinoC1-peptide complex. The system was then washed using HBS-P^+ buffer for 300 s at 30 μL/min prior to rechallenge with peptide-Fc. The cycle was repeated three times following a final dissociation step of 300 s. For the alanine scanning experiments, the anti-minocycline antibody (sdAb-muIgG2a-Fc fusion) was captured on a Protein A series S sensor chip, to a density of 3000 RU. […] Glycine-HCl (pH 1.5) was used as the regeneration buffer. In each case, flow cell 1 was used for reference subtraction, and a “0 concentration” sensogram of buffer alone was used as a double reference subtraction to factor for drift. Data analysis was carried out using Biacore T200 Evaluation Software, version 3.0, and Biacore Insight evaluation software. The 1:1 Langmuir binding model was used to calculate the association (ka), dissociation (kd) rate constants, and equilibrium dissociation constant (KD).

[1] = test system: MinoCAR-transduced PBMC against SupT1-EGFR+ target cells; type: cell-based; details: 0.1, 1 and 10 μM, 24 h, 1:2 E/T
Experimental: Transduced CAR T cells were determined by staining for the transduction marker RQR8 and normalized by the addition of nontransduced T cells. Effector cells were cocultured with 5.0 × 10^4 number of target cells (SupT1-NT, SupT1-EGFR+, SKOV3-mKate) to achieve the desired effector cell to target ratio. […] Cocultures were incubated for 24–72 h at 37 °C and 5% CO2. After incubation, plates were centrifuged at 400g for 5 min, and the supernatant containing secreted cytokines was collected for cytokine analysis. Cells were stained with anti-hCD34-APC and anti-CD3-PeCy7 to differentiate effector T cells and target cells. Cells were washed with 300 μL o PBS and stained with SYTOX Blue Dead Cell Stain dye. The percentage of target cell survival was measured relative to the number of live target cells cocultured with nonspecific CAR T cells or nontransduced PBMCs.

TetRB = details: cited from earlier work
[2] = SPR of anti-minocycline sdAb-Fc clones binding to minocycline
Experimental: as §1

[3] = Isothermal titration calorimetry of aMinoC1 binding to minocycline; details: sdAb-Fc 2 μM titrated with minocycline 50 μM, 25 °C; read-out: KD (ITC)
Experimental: ITC measurements were performed using the PEAQ-ITC nonautomated (MicroCal) at 25 °C. The antibody sample was dialyzed overnight using 5 L of PBS (20 mM Na3PO4, 150 mM NaCl, pH 7.4). […] The concentration of the anti-minocycline sdAb (as murine IgG2a Fc fusion) was determined using extinction coefficients ε280 nm = 31,065 M^–1 cm^–1.

[4] = nanoDSF thermal unfolding of aMinoC1; type: physicochemical
Experimental: A dye-free protocol was used whereby the intrinsic fluorescence of tryptophan and tyrosine was measured by scanning samples at 330 and 350 nm to determine protein unfolding. […] Melting scan was carried out by setting the run at 1 °C/min temperature increments from 20 to 95 °C. Tm was calculated as first derivative of 350/330 nm ratio.

For CN(C)[C@@H]1C(O)=C(C(N)=O)C(=O)[C@@]2(O)C(O)=C3C(=O)c4c(O)cccc4[C@@](C)(O)[C@H]3C[C@@H]12 [tetracycline], the “binding to aMinoC1 (SPR)” value (aMinoC1 sdAb) was “Neither sdAb showed an interaction; also recorded: lack of binding; also recorded: without cross-reactivity”, the “binding to aMinoC22 (SPR)” value (aMinoC22 sdAb) was “Neither sdAb showed an interaction; also recorded: lack of binding” and the “GWARA-Fc dissociation from immobilized aMinoC1 on small-molecule injection” value (aMinoC1-peptide complex) was “No enhanced dissociation”. For the same molecule, the “peptide-Fc (HWAQA, PWAYS and QWAMM) dissociation from immobilised aMinoC1 on small-molecule injection” value (aMinoC1-peptide complex) was “No enhanced dissociation”, the “effect of other small molecules on MinoCAR cytotoxicity” value [1] was “not affected” and the Kd (TetRB) was 2.8 nM.

B1: aMinoC1: anti-minocycline single-domain antibody clone 1 from immunized alpaca, tested as sdAb-Fc (antibody, V domains shown)
VH: QVQLESGGGLVQPGSSLRLSCAASGRTFSSYNIGWFRQAPKEREFVAAISWSGARTYYADSVKGRFTISRDNAKNTVYLQMNSLKPEDTAVYSCAAGRGWGTEAILDYWGQGTQVSSA
For B1, the ka [2] was 1.13e+06 M⁻¹ s⁻¹, the kd [2] was 0.036 s⁻¹ and the Kd [3] was 24.9 nM. The “first unfolding midpoint (Tm50)” value ([4]; aMinoC1 alone, PBS pH 7.4) was 79.5 °C, the “improvement of Tm50 with minocycline” value ([4]; minocycline 1 nM to 2.5 mM) was “over 10 °C” and the “Tm50 on coincubation with minocycline” value ([4]; minocycline ranging from 1 nM to 2.5 mM) was 89.6 °C.
